The source of these data is ChEMBL document CHEMBL5113555, “Potent PROTACs Targeting EGFR Mutants in Drug Discovery” (ACS Med Chem Lett, 2022).

Assay [1] concerns the target Protein cereblon/Epidermal growth factor receptor (Homo sapiens, UniProt P00533+Q96SW2). The assay is described as follows: Protac activity at E3 ubiquitin ligase/EGFR Del19/[…]/C797S mutant assessed as E3 ubiquitin ligase mediated EGFR degradation in human NCI-H1975 cells expressing Del19/[…]/C797S mutant in clone 28 after 16 hrs by HTRF assay. The class given is cell-based. A general note: In TR-FRET formats the signal depends on donor and acceptor labels being close together.

The test system of assay [2] is Protein cereblon/Epidermal growth factor receptor (Homo sapiens), P00533+Q96SW2 [UNDEFINED MUTATION]. The assay is described as follows: Protac activity at E3 ubiquitin ligase/EGFR Del19/[…]/C797S mutant assessed as E3 ubiquitin ligase mediated EGFR degradation in human NCI-H1975 cells expressing Del19/[…]/C797S mutant in clone 28 after 16 hrs by HTRF assay relative to control. The class given is cell-based.
Chain of Protein cereblon/Epidermal growth factor receptor (Homo sapiens), P00533+Q96SW2 [UNDEFINED MUTATION] (P00533 whole entry, looked up, stated change not applied): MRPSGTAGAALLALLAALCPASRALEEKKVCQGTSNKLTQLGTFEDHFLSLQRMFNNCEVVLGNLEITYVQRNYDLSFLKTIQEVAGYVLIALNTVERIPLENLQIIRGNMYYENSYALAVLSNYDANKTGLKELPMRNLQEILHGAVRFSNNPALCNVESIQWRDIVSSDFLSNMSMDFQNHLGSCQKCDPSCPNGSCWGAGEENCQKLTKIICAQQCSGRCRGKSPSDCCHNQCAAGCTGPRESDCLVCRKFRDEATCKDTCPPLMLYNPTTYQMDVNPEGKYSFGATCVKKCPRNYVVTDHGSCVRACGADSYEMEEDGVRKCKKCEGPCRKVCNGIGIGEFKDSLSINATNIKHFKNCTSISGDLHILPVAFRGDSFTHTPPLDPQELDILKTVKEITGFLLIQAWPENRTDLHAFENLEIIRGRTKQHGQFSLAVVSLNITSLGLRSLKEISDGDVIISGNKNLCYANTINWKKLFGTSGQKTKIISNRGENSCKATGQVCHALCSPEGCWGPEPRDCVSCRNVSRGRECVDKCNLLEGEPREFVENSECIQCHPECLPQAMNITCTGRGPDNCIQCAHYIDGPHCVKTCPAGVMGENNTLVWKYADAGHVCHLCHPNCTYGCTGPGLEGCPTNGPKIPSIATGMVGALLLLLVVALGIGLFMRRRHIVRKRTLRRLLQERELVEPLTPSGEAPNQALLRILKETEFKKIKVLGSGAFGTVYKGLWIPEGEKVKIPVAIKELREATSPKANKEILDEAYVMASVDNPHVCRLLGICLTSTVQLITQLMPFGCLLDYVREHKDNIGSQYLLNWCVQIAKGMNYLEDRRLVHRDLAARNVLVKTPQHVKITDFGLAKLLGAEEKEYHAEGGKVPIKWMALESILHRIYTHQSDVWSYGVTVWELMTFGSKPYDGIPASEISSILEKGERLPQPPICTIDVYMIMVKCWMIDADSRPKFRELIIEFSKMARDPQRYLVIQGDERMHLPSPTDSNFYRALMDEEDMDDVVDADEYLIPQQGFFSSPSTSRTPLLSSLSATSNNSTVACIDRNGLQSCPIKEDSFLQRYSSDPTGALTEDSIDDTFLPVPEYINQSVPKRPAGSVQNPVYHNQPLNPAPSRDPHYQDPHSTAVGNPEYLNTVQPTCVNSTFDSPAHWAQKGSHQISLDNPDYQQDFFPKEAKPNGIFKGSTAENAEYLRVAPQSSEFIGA
Chain of Protein cereblon/Epidermal growth factor receptor (Homo sapiens), P00533+Q96SW2 [UNDEFINED MUTATION] (Q96SW2 whole entry, looked up, stated change not applied): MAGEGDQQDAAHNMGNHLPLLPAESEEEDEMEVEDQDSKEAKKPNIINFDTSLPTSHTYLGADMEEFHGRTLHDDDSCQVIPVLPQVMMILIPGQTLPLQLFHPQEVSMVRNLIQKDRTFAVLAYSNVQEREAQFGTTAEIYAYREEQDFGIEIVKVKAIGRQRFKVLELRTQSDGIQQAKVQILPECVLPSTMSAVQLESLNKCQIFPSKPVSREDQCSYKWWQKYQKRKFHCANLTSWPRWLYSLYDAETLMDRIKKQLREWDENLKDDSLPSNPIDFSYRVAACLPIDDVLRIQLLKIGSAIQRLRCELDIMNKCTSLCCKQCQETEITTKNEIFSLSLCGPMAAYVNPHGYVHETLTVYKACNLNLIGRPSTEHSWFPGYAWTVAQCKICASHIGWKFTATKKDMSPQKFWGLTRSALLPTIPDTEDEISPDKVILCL

Chain of Protein cereblon/Epidermal growth factor receptor (P00533 whole entry, looked up, stated change not applied): as the sequence (P00533 whole entry, looked up, stated change not applied) above
Chain of Protein cereblon/Epidermal growth factor receptor (Q96SW2 whole entry, looked up, stated change not applied): as the sequence (Q96SW2 whole entry, looked up, stated change not applied) above

`CCc1cc(Nc2ncc(Br)c(Nc3cnc4ccccc4c3P(C)(C)=O)n2)c(OC)cc1N1CCC(N2CCN(CCc3ccc4c(oc(=O)n4C4CCC(=O)NC4=O)c3F)CC2)CC1` (centres undefined): the half-maximal degradation concentration (DC50) in assay [1] was 900 nM. The Emax in assay [2] stood at 81%.
The matching figures for `CCc1cc(Nc2ncc(Br)c(Nc3cnc4ccccc4c3P(C)(C)=O)n2)c(OC)cc1N1CCC(N2CCN(CCc3cccc4c3n(C3CC3)c(=O)n4C3CCC(=O)NC3=O)CC2)CC1` (centres undefined): 700 nM and 85%.
The matching figures for `CCc1cc(Nc2ncc(Br)c(Nc3cnc4ccccc4c3P(C)(C)=O)n2)c(OC)cc1N1CCC(N2CCN(CCc3ccc(F)c4c3n(C)c(=O)n4C3CCC(=O)NC3=O)CC2)CC1` (centres undefined): 1000 nM and 86%.
`CCOc1cc(N2CCC(N3CCN(CCc4cccc5c4n(C)c(=O)n5C4CCC(=O)NC4=O)CC3)CC2)c(CC)cc1Nc1ncc(Br)c(Nc2cnc3ccccc3c2P(C)(C)=O)n1` (centres undefined): the half-maximal degradation concentration (DC50) in assay [1] was determined as 4400 nM. Also, the Emax in assay [2] stood at 84%.
The matching figures for `CCc1cc(Nc2ncc(Br)c(Nc3cnc4ccccc4c3P(C)(C)=O)n2)c(OC)cc1N1CCC(N2CCN(CCc3cccc4c3n(CC)c(=O)n4C3CCC(=O)NC3=O)CC2)CC1` (centres undefined): 900 nM and 83%.
The matching figures for `CCOc1cc(N2CCC(N3CCN(CCc4cccc5c4n(C)c(=O)n5C4CCC(=O)NC4=O)CC3)CC2)c(CC)cc1Nc1ncc(Br)c(Nc2cnc3cc(F)ccc3c2P(C)(C)=O)n1` (centres undefined): 400 nM and 84%.
For the compound `CCOc1cc(N2CCC(N3CCN(CCc4cc(F)c(F)c5c4oc(=O)n5C4CCC(=O)NC4=O)CC3)CC2)c(CC)cc1Nc1ncc(Br)c(Nc2cnc3ccccc3c2P(C)(C)=O)n1` (centres undefined), the DC50 in assay [1] came out at 600 nM. Also, in assay [2], the Emax was found to be 81%.

A word on the DC50: it is the concentration at which degradation of the target reaches its halfway point.
